Test results published in patent publication US12102672B2, “Immunogenic sequences from a phage tail length tape measure protein, bacteria expressing the same and their use in treating a cancer” (INSTITUT GUSTAVE ROUSSY, priority 2017, dated 2024).
“Also recorded” adds a separate entry of the source.

Key:
colon mucosae = experiment: Colon inflammatory infiltrates (HES staining) after E. hirae gavage and CTX; assay type: in vivo, mice; conditions: for inflammatory infiltrates of colon mucosae: mice without tumor, oral gavages + CTX, versus without commensals
Procedure: FIG. 11. Effects of EH on gut inflammation and role of CD8+ T cells in this inflammation: EH-specific CTL amplified in the mLN may return into the lamina propria. (A) Experimental setting. […] Then, we performed oral gavage with E. hirae (708 or 13144) and anti-CD8 injection (200 μg per mice) every three days for a total of 4 gavages/injections. 5 days after the first oral gavage, mice are treated with CTX. One week post-CTX, colon is removed for Hematoxylin Eosin Staining (HES). (B) Extent of inflammatory infiltrates in colon of mice colonized with E. hirae and treated with anti-CD8 ablating Abs and CTX.
FIG. 18. […] (A) Experimental setting. […] Then we performed oral gavage with E. hirae (708 or 13144) every three days for a total of 4 gavages. 5 days after the first oral gavage, mice were treated with CTX. One week post-CTX, colons are removed to be embedded in PPFE for Hematoxylin, Eosin and Safran staining (HES). (B) Extent of inflammatory infiltrates in colons of mice bearing MCA205 tumors or not and colonized with E. hirae and treated with CTX. Student t′-test statistical analyses: ** p<0.01.

MCA-205 sarcoma [1] = experiment: MCA-205 sarcoma growth in FMT-treated mice, CTX plus oral gavage with E. hirae strains; assay type: in vivo; conditions: for CTX-mediated antitumor effects (MCA-205 tumor growth): FMT from BC patient 2 with no overt dysbiosis, oral gavage; for boost of CTX tumoricidal activity (MCA-205 tumor growth): dysbiotic FMT from BC patient, 3 cycles CTX 100 mg/kg, oral gavage 1.10^9 bacteria; for Anti-tumor effect: summary of the characteristics of the strains, with CTX, MCA205 sarcoma
Procedure: FIG. 1. Experimental setting. (A) Mice are treated with broad spectrum antibiotics (streptomycin, colistin, ampicillin and vancomycine) for 3 days before performing Fecal Microbiota Transplantation (FMT). 14 days post-FMT, MCA-205 sarcoma cell lines are inoculated in the right flank of mice (8.10^5 cells per mice). […] (B) Non FMT-treated SPF mice are used as control.
FIG. 2. Dysbiosis by FMT BC patient 1: Effectiveness of E. hirae 13144 to restore CTX-mediated antitumor effects. […] (C) Tumor growth curves of MCA-205 sarcoma in FMT-treated mice after oral gavage with strain E. hirae 13144 or NaCl as control. 2 independent experiments are depicted. (D) Overall survival of FMT-treated, MCA-205 sarcoma bearing mice treated with CTX or NaCl after oral gavage with strain E. hirae 13144. A typical survival curve is depicted for six mice per group. (E) Concatenated data of tumor sizes at day 21 post-CTX from 2 independent experiments are shown.
FIG. 3. […] (C) Tumor growth curves of MCA-205 sarcoma in FMT-treated mice after oral gavage with strain E. hirae 13144 or NaCl as control. 2 independent experiments are depicted. (D) Concatenated data of tumor sizes at day 21 post-CTX from 2 independent experiments are shown.
FIG. 4. […] Tumor growth curves of MCA-205 sarcoma in FMT-treated mice after oral gavage with strain E. hirae 13144 (A), IGR1 (B) or NaCl as control. A typical curve is depicted for six mice per group. (C) Concatenated data of tumor sizes at day 17 post-CTX from 1-2 independent experiments are shown. (D). Comparaison of various strains of E. hirae for their capacity to control tumor growth. […] EH10815 fails to work and that may be related to a mutation residing in TMP2 (see below FIG. 13B).
FIG. 5. […] (A) Tumor surface of MCA-205 sarcoma in FMT-treated mice after oral gavage with strain E. hirae 13144, IGR4, IGR7, Actinomycetes spp (Ao) and injected with 3 cycles of CTX (C) vs NaCl (N). Each dot is one mouse/tumor. (B) Tumor growth curves of MCA-205 sarcoma in SPF mice of the best group, means+SEM of tumor sizes at each time point and tumor sizes at sacrifice (C: CTX). Each dot is one mouse/tumor. Anova statistics indicating significant differences between CTX and the triple combination. (C) Tumor surface of MCA-205 sarcoma in FMT-treated mice after oral gavage with strains EH13144, IGR1, IGR11, Barnesiella or Akkermansia and injected with 3 cycles of CTX. Bacterial strains are used alive (V) or pasteurized (P). For pasteurization, bacteria are incubated 30 min at 70° C. and frozen at −80° C. at least 6 hours.
FIG. 6. […] Tumor growth curves of MCA-205 sarcoma in FMT-treated mice after oral gavage with strain E. hirae 13144 alive (A), pasteurized (B) or NaCl as control. A typical curve is depicted for six mice per group. (C) Concatenated data of tumor sizes at day 17 post-CTX from 3 independent experiments are shown.

MCA205 sarcoma = conditions: cited from earlier work; for anti-tumor immune response: FIG. 1D of Daillère et al., 2016
MCA-205 sarcoma [2] = experiment: MCA205 sarcoma growth in antibiotic-treated SPF C57BL/6 mice, CTX plus oral gavage with bacteria; assay type: in vivo; conditions: ATB 3 days, CTX 100 mg/kg x3, weekly oral gavages, FIG. 27B
Procedure: A and C. Experimental setting. […] D-E. Ex vivo recall assays. […] Each dot represents one mouse.
A-B. Prophylactic vaccinations. […] C-D. Therapeutic settings.
Mice were treated during 3 days with an antibiotic solution (ATB) containing ampicillin (1 mg/ml), streptomycin (5 mg/ml), colistin (1 mg/ml) (Sigma-Aldrich) and vancomycin (0.25 mg/ml) added in the sterile drinking water of mice. Antibiotic activity was confirmed by cultivating fecal pellets resuspended in BHI+15% glycerol at 0.1 g/ml on COS (BD Columbia Agar with 5% Sheep Blood) plates for 48 h at 37° C. in aerobic and anaerobic conditions. In the context of bacterial transplantation experiments, mice received 3 days of ATB before undergoing bacterial transplantation the next day by oral gavage using animal feeding needles.
Syngeneic C57BL/6 mice were implanted with 0.8×10^6 MCA-205 WT sarcoma cells subcutaneously and treated intraperitoneally (i.p.) when tumors reached 20 to 35 mm^2 in size with CTX (100 mg/kg). Depending on the experimental setting, mice were injected once or 3 times at 1-week interval. Tumor size was routinely monitored every 3 days by means of a caliper.
Enterococcus hirae 13144 were originally isolated from spleens of SPF mice treated with CTX in our laboratory.

CD8+ and CD4+ T cells = experiment: Flow cytometry of T cells in mLN, spleen and tumor after oral gavage with E. hirae and CTX; assay type: in vivo, mice; conditions: for accumulation of CD8+ T cells in mLN and spleen: mLN after 1 week, spleen after 2 weeks
Procedure: FIG. 7. […] (A) Experimental setting. […] One day post-CTX, a second oral gavage with E. hirae is performed. 72 hours post-CTX, CD4+ and CD8+ T cells are isolated from mesenteric lymph node (mLN). Percentage of CD8+(B) and CD4+(C) T cells in mLN after oral gavage with E. hirae 708 or 13144 and CTX treatment. (D) Experimental setting. […] 5 days after the first oral gavage, mice are treated with CTX. One week post-CTX, CD8+ T cells are isolated from spleen. Percentage of CD8+ T cells (E) and CCR9+CXCR3+CD8 T cells (F) in spleen after oral gavage with E. hirae 708 or 13144 and CTX treatment.

Substance	colon inflammatory lesions in tumor bearers (colon mucosae; mice bearing MCA205 sarcoma versus naive, listed as E. hirae 13144)	inflammatory infiltrates of colon mucosae (colon mucosae)	CTX-mediated antitumor effects (MCA-205 tumor growth) (MCA-205 sarcoma [1]; listed as E. hirae 13144)	CTX-mediated antitumor effects (MCA-205 tumor growth) (MCA-205 sarcoma [1]; listed as EH13144)	boost of CTX tumoricidal activity (MCA-205 tumor growth) (MCA-205 sarcoma [1]; listed as E. hirae 13144)	boost of CTX tumoricidal activity (MCA-205 tumor growth) (MCA-205 sarcoma [1]; listed as EH13144)	Anti-tumor effect (MCA-205 sarcoma [1])	restoration of CTX-mediated antitumor effects (MCA205 sarcoma; 14 day-ATBs, oral gavage)	anti-tumor immune response (MCA205 sarcoma)	restoration of antibiotic-perturbed anticancer effects of CTX (MCA205 growth) (MCA-205 sarcoma [2])	CD4+ T cell pool in the mLN (CD8+ and CD4+ T cells; 72 hours post-CTX)	accumulation of CD8+CCR9+CXCR3+ T cells in spleen and tumor beds (CD8+ and CD4+ T cells; listed as EH13144)	accumulation of CD8+ T cells in mLN and spleen (CD8+ and CD4+ T cells; listed as E. hirae 13144)	accumulation of CD8+ T cells in mLN and spleen (CD8+ and CD4+ T cells; listed as EH13144)	accumulation of CD8+ T cells in mLN and spleen (CD8+ and CD4+ T cells)
Enterococcus hirae strain 13144 [Peptide 13144]	markedly reduced; also recorded: prevents the gut inflammatory lesions	more infiltrated	ameliorates the CTX-mediated antitumor effects	significant	only when used alive	very effective at restoring the efficacy	Yes	selectively restored the CTX-mediated antitumor effects	induces an efficient anti-tumor immune response	efficient	amplified	induce accumulation; also recorded: Sustained accumulation	Increased accumulation	capable of inducing the accumulation of CD8+ T cells	–
Enterococcus hirae 708 [Peptide 708, reference compound]	–	more infiltrated	–	–	–	–	No	–	fails to do so	reduced anticancer effect	–	–	–	–	capable of inducing the accumulation of CD8+ T cells
